Experimental data published in patent US6759064B2, “Compositions based on vanilloid-catechin synergies for prevention and treatment of cancer” (Purdue Research Foundation, priority 2001, dated 2004).
Where a name gives a salt, the structure may show the parent alone. Read-outs that look alike come from different tables or passages of the source.

Legend:
[1] = target: T1, NADH oxidase (tNOX) of HeLa cells (Homo sapiens, UniProt Q16206); assay: inhibition of NADH oxidase (tNOX) activity of HeLa cells; assay type: biochemical
T1 construct: endogenous in cells; host or cells: HeLa (ATCC CCL2)
T1 sequence (Q16206 1-610): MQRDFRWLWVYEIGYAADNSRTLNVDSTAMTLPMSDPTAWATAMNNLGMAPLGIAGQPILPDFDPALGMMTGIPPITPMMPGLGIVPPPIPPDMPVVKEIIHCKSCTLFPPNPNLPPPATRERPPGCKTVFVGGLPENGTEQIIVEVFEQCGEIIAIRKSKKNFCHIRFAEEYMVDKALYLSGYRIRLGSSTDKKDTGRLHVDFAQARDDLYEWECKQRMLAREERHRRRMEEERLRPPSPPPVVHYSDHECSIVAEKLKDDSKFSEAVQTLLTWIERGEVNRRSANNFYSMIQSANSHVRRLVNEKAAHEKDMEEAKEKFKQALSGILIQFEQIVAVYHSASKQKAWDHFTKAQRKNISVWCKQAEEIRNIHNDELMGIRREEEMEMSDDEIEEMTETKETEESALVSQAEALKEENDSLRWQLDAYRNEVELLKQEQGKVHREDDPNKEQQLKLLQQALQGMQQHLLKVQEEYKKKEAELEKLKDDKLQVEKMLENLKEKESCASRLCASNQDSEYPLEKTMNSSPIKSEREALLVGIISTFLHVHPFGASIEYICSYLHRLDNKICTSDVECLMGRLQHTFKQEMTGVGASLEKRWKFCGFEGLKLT
Experimental: (§1) HeLa (ATCC CCL2) cells were grown in 150 cm^2 flasks in Minimal Essential Medium (Gibco), pH 7.4, at 37° C. with 10% bovine calf serum (heat inactivated, plus 50 mg/l gentamicin sulfate (Sigma). A mouse mammary tumor subpopulation line 4T1 arising from a BALB/cfC3H mouse (Miller et al., 1981, Brit. J. Cancer 56:561 and Miller et al., 1990, Invasion Metastasis 10:101) was grown in DME 10, Dulbecco's modified Eagle's medium supplemented with 5% fetal calf serum, 5% newborn calf serum, 1 mM mixed non-essential amino acids, 2 mM L-glutamine, penicillin (100 units/ml), and streptomycin (100 μg/ml).
(§2) NADH oxidase activity may be monitored and measured by virtue of the decrease in absorbance at 340 nm wavelength. A millimolar extinction coefficient of 6.22 for NADH was used to calculate rates of NADH oxidation. Additional tests are such as those described by Morre, 1994, Bioenerg. Biomemb. 26:421, and Chueh et al., 1997, J. Biol. Chem. 272:11221, which are incorporated by reference in their entireties.

HeLa cells = assay: growth of HeLa cells in culture, 96-well plate assay; assay type: cell-based, human; details: for A580, % of no addition / Growth, % of control: HeLa; for Growth, % of control: no source
[2] = target: T2, NADH oxidase (tNOX) of 4T1 cells (Mus musculus, UniProt Q8R0Z2); assay: inhibition of NADH oxidase (tNOX) activity of 4T1 cells; assay type: biochemical
T2 construct: endogenous in cells; host or cells: 4T1 mouse mammary tumor cells
T2 sequence (Q8R0Z2 1-598): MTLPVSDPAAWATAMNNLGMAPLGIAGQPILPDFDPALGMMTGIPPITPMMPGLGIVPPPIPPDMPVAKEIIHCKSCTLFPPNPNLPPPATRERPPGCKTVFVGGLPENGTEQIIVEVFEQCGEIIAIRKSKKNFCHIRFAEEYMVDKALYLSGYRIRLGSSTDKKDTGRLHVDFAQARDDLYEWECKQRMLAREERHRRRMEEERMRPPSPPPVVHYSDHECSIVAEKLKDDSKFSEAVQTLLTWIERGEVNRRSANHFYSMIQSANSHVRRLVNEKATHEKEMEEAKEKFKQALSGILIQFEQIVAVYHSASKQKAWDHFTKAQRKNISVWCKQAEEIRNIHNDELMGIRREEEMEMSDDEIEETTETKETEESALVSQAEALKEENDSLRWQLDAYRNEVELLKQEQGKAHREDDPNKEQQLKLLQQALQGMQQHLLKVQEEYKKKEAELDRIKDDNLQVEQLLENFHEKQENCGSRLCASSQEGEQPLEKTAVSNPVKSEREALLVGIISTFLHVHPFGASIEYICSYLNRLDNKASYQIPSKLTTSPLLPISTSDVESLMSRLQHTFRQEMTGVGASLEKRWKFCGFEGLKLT
Experimental: as §1, §2

[3] = system: 4T1 mouse mammary carcinoma cells; assay: tumor weight and metastases of 4T1 mouse mammary carcinoma cells in BALBc mice; assay type: in vivo
Experimental: Cells from monolayer culture were suspended in Hank's buffered salt solution and 1×10^6 cells were injected into the subscapular region in a volume of 0.1 ml.
Anti-metastatic drugs were administered in the dose/injection indicated intratumoral in 0.1 ml total volume on alternate days beginning after palpable tumor masses were discernible (approximately 7 days post implantation) for a total of 6 injections. Appropriate solvent and sham-injected controls were included. At […] post tumor implantations, mice were sacrificed and major organs (e.g., lung, liver, lymph nodes) were examined for evidence of metastases.

4T1 cells = assay: growth of 4T1 cells over 48 h, 96-well plate assay; assay type: cell-based, mouse; details: 4T1, 48 h
Experimental: as §1
Cells were quantitated using a standard cytotoxicity assay (Matthews & Neale, 1987, In Lymphokines and Interferons. A Practical Approach. Clemens, M. J. et al., eds. IRL Press, Oxford, p. 221).

NADH oxidase = target: T3, NADH oxidase (Homo sapiens, UniProt Q16206); assay: NADH oxidase assay, genestein interactions (data not shown); assay type: biochemical
T3 sequence (Q16206 1-610): T1 sequence (Q16206 1-610)
From the text: as §2

cancer cells = assay: cancer cell growth and apoptosis under EGCg; assay type: cell-based
[4] = clearance of EGCg from the blood; details: in vivo

COc1cc(CN)ccc1O [Vanillylamine, 4-hydroxy-3-methoxybenzy amine hydrochloride]
EC50 ([1]; HeLa, 1.5 × 10^6 cells (Table 2), read-out: EC50(M), inhibition of NADH oxidase): 1e-09 M | A580, % of no addition (HeLa cells; 48 h, final concentration 1 μM): 128 % of no addition | Growth, % of control (HeLa cells; 48 h, vanillylamine 1:150): 130 % of control | Growth, % of control (HeLa cells; 72 h, vanillylamine 1:150): 120 % of control | EC50 ([2]; 4T1, 1.5 × 10^6 cells (Table 2), read-out: EC50(M), inhibition of NADH oxidase): 5e-09 M | Tumor weight ([3]; BALBc mice, intratumoral on alternate days, 6 injections, sacrifice 15 days post implantation): 0.50 ± 0.20 | neurological discomfort and possible toxicity ([3]; mouse model): without the neurological discomfort and possible toxicity | prevention of metastasis in a mouse model ([3]; mouse model): effective | Tumor growth and metastatic spread ([3]; three animals): prevented | A580, % of no addition (4T1 cells; final concentration 1 μM): 144 % of no addition

O=c1c(-c2ccc(O)cc2)coc2cc(O)cc(O)c12 [genestein]
synergy with either vanillylamine or EGCg in the NADH oxidase assay (NADH oxidase): did not exhibit | growth of HeLa cells (HeLa cells; data not shown): inhibited | interactions of genestein with EC or Tegreen (HeLa cells; data not shown): additive | inhibition of growth of HeLa cells (HeLa cells; genestein at 10 μM): 87% | toxicity (HeLa cells; genestein at 100 μM): toxic | interactions with EGCg on growth of HeLa cells (HeLa cells; higher genestein concentrations): no interactions were seen | interactions with 1 μM EGCg on growth of HeLa cells (HeLa cells; low genestein concentrations, data not shown): additive

(−)-epigallocatechin gallate [EGCg]
EC50 ([1]; HeLa cells grown in culture (Table 3), read-out: EC50(M), inhibition of tNOX activity): 1e-07 M | growth of cancer cells (cancer cells; challenged with 10^−7 M EGCg every two hours during the day): inhibited | reversibility of the effect on cancer cell growth (cancer cells; if the EGCg is removed, cancer cells resume normal rates of growth): reversible | inhibition of growth of HeLa cells (HeLa cells; EGCg at 1 μM): 12% | A580, % of no addition (HeLa cells; 48 h, final concentration 20 μM): 90 % of no addition | Growth, % of control (HeLa cells; 48 h, EGCg 1:150): 112 % of control | Growth, % of control (HeLa cells; 72 h, EGCg 1:150): 97 % of control | EC50 ([2]; 4T1 cells grown in culture (Table 3), read-out: EC50(M), inhibition of tNOX activity): 1e-08 M | A580, % of no addition (4T1 cells; final concentration 20 μM): 58 % of no addition | clearance from the blood [4]: rapidly cleared from the blood and metabolized
